For one assay, the system named is HCT116 cells. Briefly: HCT116 cell viability (trypan blue) with cisplatin, exogenous DnaKs and DnaK inhibitor (Example 4). Type of assay: cell-based, human.
For assay [1], the target named is Mycoplasma fermentans DnaK-V5, expressed inside cells (codon-optimized DnaK vector transfected into (Mycoplasma fermentans)). The assay can be described thus: cell-based or functional assay.
Assay [2] deals with Recombinant purified exogenous Mycoplasma fermentans DnaK-V5 protein (eM-DnaK) (Mycoplasma fermentans). Briefly: SPR (BIAcore T100), eM-DnaK immobilized on CM5 chip (2274.9 RU), ARV-1502 as analyte.
The subject of assay [3] is HCT116 cells infected with Mycoplasma. Briefly: Cell viability of Mycoplasma-infected HCT116 cells (LIVE/DEAD kit). In kind it is cell-based, human. As to conditions: 5FU or Nutlin-3, 48 hours. The protocol: FIG. 2. DnaK negatively affects p53 activities and Mycoplasma infection reduces the effect of anti-cancer drugs. (A) DnaK reduces p53-associated activities in HCT116 cells. Levels of p53, p21, Bax and PUMA proteins were analyzed in control, vector and DnaK transfected cells at different time-points (2, 8 and 16 hours). Expression of DnaK was verified using the anti-V5 antibody. NT: not transfected; VT: vector transfected; DnaK: DnaK transfected; M: media; D: DMSO; N: Nutlin. β-act: β-actin. Band intensity was measured by densitometric analysis. Numbers above bands indicate fold increase above level of nutlin-treated DnaK-transfected cells, normalized for the levels of β-actin. (B) DnaK increases cell cycle progression. HCT116 cells were transfected with a DnaK-expressing vector and subsequently analyzed for cell cycle progression. Data were collected 16-24 hours after transfection. Results represent mean and standard deviations of 5 different experiments. […] Results are expressed as percent cell viability over control (uninfected cells in media alone were considered as 100%). Mean difference is shown. *=p<0.001—calculated using Poisson regression.
HCT116 cells (colon carcinoma cell line) were obtained from ATCC. […] In all experiments cell viability was calculated as a percentage relative to the control cultures. […]

In the next assay the target is M. tuberculosis DnaK (Mycobacterium tuberculosis, UniProt P9WMJ9). The note with it: previously demonstrated; cited from earlier work.

With `N.N.[Cl][Pt][Cl]` [cisplatin], the “blunting of the anti-cancer effect of the drug” value in the assay on HCT116 cells (HCT116, cisplatin in the presence of eM-DnaK or eF-DnaK) was 40-50%.

Broadly, the Kd is the concentration at which binding is half-saturated. Turning to ARV-1502 (peptide), the cell viability of DnaK-expressing primary murine cancer cells, 5FU plus ARV-1502 in assay [1] stood at 40%. Besides, in assay [2], the Kd came to 1.9 µM.

In the case of `COc1ccc(C2=N[C@@H](c3ccc(Cl)cc3)[C@@H](c3ccc(Cl)cc3)N2C(=O)N2CCNC(=O)C2)c(OC(C)C)c1` [Nutlin, Nutlin-3], in assay [3], the “effect of Mycoplasma infection on drug activity (cell viability)” value was “resistance to these anti-cancer drugs”.

With `COc1cc(C(=O)NS(=O)(=O)c2ccccc2C)ccc1Cc1cn(C)c2ccc(NC(=O)OC3CCCC3)cc12` [Zafirlukast, zafirlukast], the “restoration of cisplatin anticancer activity” value with HCT116 cells (HCT116, cisplatin in the presence of DnaK from M. fermentans and F. nucleatum (FIG. 9)) is recorded as “restores anticancer activity of cisplatin”.

As for `CCC[C@H](NC(=O)[C@@H]1[C@H]2CCC[C@H]2CN1C(=O)[C@@H](NC(=O)[C@@H](NC(=O)c1cnccn1)C1CCCCC1)C(C)(C)C)C(=O)C(=O)NC1CC1` [Telaprevir, (3S,3aS,6aR)-2-[(2S)-2-[[(2S)-2-cyclohexyl-2-(pyrazine-2-carbonylamino)acetyl]amino]-3,3-dimethylbutanoyl]-N-[(3S)-1-(cyclopropylamino)-1,2-dioxohexan-3-yl]-3,3a,4,5,6,6a-hexahydro-1H-cyclopenta[c]pyrrole-3-carboxamide], in the assay on HCT116 cells (HCT116, cisplatin in the presence of eM-DnaK or eF-DnaK pre-treated with Telaprevir (25 μg/ml)), the “restoration of cisplatin anti-cancer activity” value is “restoration of the original anti-cancer activity”. Also, the “DnaK binding and ATPase activity” value on M. tuberculosis DnaK is “bind to M. tuberculosis DnaK substrate-binding domain and to reduce its ATPase activity”.

The values are drawn from patent US20250281456A1, “METHODS OF TREATING CANCER BY INHIBITING BACTERIAL DNAK TO RESTORE ACTIVITIES OF ANTICANCER DRUGS” (University of Maryland, Baltimore, priority 2022, published 2025).
